Tested on: microorganisms

With `O=C(O)CCCCC(=O)O` [Adipic acid] the “portion of the total mortality observed accounted for by the toxicity” value was “about 60%” and the “toxicity (mortality) on its own” value (pH 4.24) was 45.8%.

Reference: US9492377B2, “Effervescent composition in solid form for use in vaginal applications for the treatment of vaginal infections” (PROBIOTICAL S.P.A., priority 2011, dated 2016)
